In ChEMBL document CHEMBL2417448, “Cytotoxic triterpenoids from Lysimachia parvifolia” (Eur J Med Chem, 2013):

Columns and labels:
Assay type in all cases: functional, cell-based
U-266 = assay: Cytotoxicity against human U266 cells after 24 hrs by MTT assay; details: U-266, 24 h
[1] = Cytotoxicity against human Bel7404 cells after 24 hrs by MTT assay; details: BEL-7404, 24 h
HepG2 = assay: Cytotoxicity against human HepG2 cells after 24 hrs by MTT assay; details: HepG2, 24 h
SGC-7901 = assay: Cytotoxicity against human SGC7901 cells after 24 hrs by MTT assay; details: SGC-7901, 24 h
A549 = assay: Cytotoxicity against human A549 cells after 24 hrs by MTT assay; details: A549, 24 h
HL-60 = assay: Cytotoxicity against human HL60 cells after 24 hrs by MTT assay; details: HL-60, 24 h

Row | Structure (SMILES) | IC50 (U-266) [µM] | IC50 [1] [µM] | IC50 (HepG2) [µM] | IC50 (SGC-7901) [µM] | IC50 (A549) [µM] | IC50 (HL-60) [µM]
1 | CC(=O)O[C@H]1CC(C)(C)C[C@@H]2[C@]13CO[C@@]21CC[C@@H]2[C@@]4(C)CC[C@H](O[C@@H]5OC[C@H](O[C@@H]6O[C@H](CO)[C@@H](O)[C@H](O)[C@H]6O)[C@H](O)[C@H]5O[C@@H]5O[C@H](CO)[C@@H](O)[C@H](O)[C@H]5O[C@@H]5OC[C@@H](O)[C@H](O)[C@H]5O)C(C)(C)[C@@H]4CC[C@@]2(C)[C@]1(C)C[C@H]3O | 8.83 | 5.88 | 4.92 | 7.69 | 5.28 | 6.8
2 | CC1(C)CC[C@]23CO[C@@]4(CC[C@@H]5[C@@]6(C)CC[C@H](O[C@@H]7OC[C@H](O[C@@H]8O[C@H](CO)[C@@H](O)[C@H](O)[C@H]8O)[C@H](O)[C@H]7O)[C@@](C)(CO)[C@@H]6CC[C@@]5(C)[C@]4(C)CC2=O)[C@@H]3C1 [ANAGALLIGENONE-3-O-[BETA-D-GLUCOPYRANOSYL(1->4)-ALPHA-L-ARABINOPYRANOSIDE] | 13.9 | 17.3 | 16.2 | 19 | 14.6 | 16.3
3 | CC1(C)C[C@@H]2[C@]3(CO[C@@]24CC[C@@H]2[C@@]5(C)CCC(=O)[C@@](C)(CO)[C@@H]5CC[C@@]2(C)[C@]4(C)CC3=O)[C@@H](O)C1 | > 100 | > 100 | > 100 | > 100 | > 100 | > 100
4 | CC1(C)C[C@@H]2[C@]3(CO[C@@]24CC[C@@H]2[C@@]5(C)CC[C@H](O)[C@@](C)(CO)[C@@H]5CC[C@@]2(C)[C@]4(C)CC3=O)[C@@H](O)C1 | > 100 | > 100 | > 100 | > 100 | > 100 | > 100
5 | CC1(C)CC[C@]23CO[C@@]4(CC[C@@H]5[C@@]6(C)CC[C@H](O[C@@H]7OC[C@H](O[C@@H]8O[C@H](CO)[C@@H](O)[C@H](O)[C@H]8O[C@@H]8OC[C@@H](O)[C@H](O)[C@H]8O)[C@H](O)[C@H]7O)[C@@](C)(CO)[C@@H]6CC[C@@]5(C)[C@]4(C)CC2=O)[C@@H]3C1 [ANAGALLIGENONE-3-O-[BETA-D-XYLOPYRANOSYL(1->2)-BETA-D-GLUCOPYRANOSYL(1->4)-ALPHA-L-ARABINOPYRANOSIDE]] | 10.4 | 9.14 | 8.87 | 9.24 | 10.9 | 10.3
6 | CC1(C)CC[C@]23CO[C@@]4(CC[C@@H]5[C@@]6(C)CC[C@H](O[C@@H]7OC[C@H](O)[C@H](O)[C@H]7O)[C@@](C)(CO)[C@@H]6CC[C@@]5(C)[C@]4(C)CC2=O)[C@@H]3C1 [ANAGALLIGENONE-3-O-ALPHA-L-ARABINOPYRANOSIDE] | 94.8 | 75.5 | 55.4 | > 100 | 85.3 | > 100
